# “And” between values parts separate entries of the source, which are not always exact repeats. Equal values may be shown once. Read-outs that look alike come from different tables or passages of the source.
# What was measured:
# C57Bl/6 mice given Con A [1] = format: in vivo
# mice on a High fat diet = assay: Low dose colchicine in high fat diet model of type 2 diabetes and fatty liver; format: in vivo; conditions: colchicine for two weeks, dose that had no anti-inflammatory effect
# Experimental: • Give colchicine at the end of the experiment for two weeks to 4 mice who were on a High fat diet and developed diabetes and fatty liver disease. • Mice are treated with a dose that had no anti-inflammatory effect. • Test for glucose, ALT and cholesterol levels at the end of the two weeks.
# C57Bl/6 mice given Con A [2] = assay: Colchicine by gavage once six hours before ConA injection, serum ALT; format: in vivo; conditions: for ALT Average: N = 3
# Experimental: Lack of an effect of low dose colchicine (0.5 mg, 3 times a day) as anti-inflammatory agent, while showing beneficial effect of low dose colchicine in diabetes and fatty liver disease. • Mice: C57Bl/6 mice, 11-12 weeks old • Duration: Mice will be administered once Colchicine six hours before ConA • Sacrifice: 14 hours after ConA injection.
# Experiment Protocol: • Day 1: Administer all compounds by gavage 300 ul: saline or Colchicine • After 6 hours give Con A by injection IV 500 μg/mouse=20 mg/kg=[…] • Day 2: On the next day: sacrifice all mice • Take blood for serum ALT The results of this experiments are given in the table below and in FIG. 7.
# [3] = tested on: PBMC from naïve GD patients; assay: PBMC from Gaucher patients incubated with ConA, IFNg ELISA; conditions: for IFNg ELISA, second value (Conc) / IFNg Conc: Colchicine 0.0625 pg/ml or dexamethasone 250 ug/well
# [4] = in vivo; cited from earlier work
# [5] = tested on: C57 Bl mice receiving CONA; assay: Daily low dose CONA in mice, regular vs irregular dexamethasone administration, serum ALT; format: in vivo; conditions: dexamethasone 50 mg/kg per day
# Experimental: Mice: 24 C57 Bl mice, 12 weeks old, n=4/group
# All animals received daily low dose CONA 300 μg/mouse daily for 10 days
# Dexamethasone daily 50 mg/kg per day
# ALT serum levels were monitored as follows
# [6] = Patient 1, lymphocytes only 80.9
# [7] = Patient 2, lymphocytes only 474.7
smiles,measurement,setting,value
Nc1c(Br)cc(Br)cc1CN[C@H]1CC[C@H](O)CC1 [Ambroxol],ALT (IU),"C57Bl/6 mice given Con A [1]; Ambroxol 1.4 mg PO, alone or with Colchicine 0.01 mg/kg, control 6068",4243 IU
same,ALT Average,"C57Bl/6 mice given Con A [1]; Ambroxol arm, N = 3, control 6068",4243
same,ALT,"C57Bl/6 mice given Con A [1]; single mice, Ambroxol arm, dilution 1/40",3683 and 4187 and 4859
COc1cc2c(c(OC)c1OC)-c1ccc(OC)c(=O)cc1[C@@H](NC(C)=O)CC2 [Colchicine],Glucose (mg %),mice on a High fat diet; control 190,155 mg %
same,ALT (IU),mice on a High fat diet; control 278,103 IU
same,Cholesterol (mg %),mice on a High fat diet; control 342,100 mg %
same,ALT Average,"C57Bl/6 mice given Con A [2]; Low dose, Colchicine 0.005 μg/kg by gavage",3218
same,ALT Average,"C57Bl/6 mice given Con A [2]; Regular dose, Colchicine 0.05 μg/kg by gavage",17134
same,ALT,"C57Bl/6 mice given Con A [2]; single mice, Regular dose, Colchicine 0.05 μg/kg by gavage, dilution 1/40",18946 and 19427 and 13029
same,"IFNg ELISA, second value (Conc)","[3]; P1, lymphocytes only 80.9",52.3
same,"IFNg ELISA, second value (Conc)","[3]; P2, lymphocytes only 474.7",47.57
same,IFNg Conc,[3]; [6],52.3
same,IFNg Conc,[3]; [7],47.57
same,effect on the inflammatory effect of PBMC from patients with Gaucher disease,[3]; summary in words,profound effect on suppressing the inflammatory effect of PBMC
same,part of dose excreted unchanged by the kidneys,[4],10-20%
same,removal by hemodialysis,[4],not removed by hemodialysis
same,adjuvant effect on the efficacy of drugs,"C57Bl/6 mice given Con A [1]; low dose colchicine, summary in words",can serve as a potent adjuvant to improve the efficacy of drugs
C[C@@H]1C[C@H]2[C@@H]3CCC4=CC(=O)C=C[C@]4(C)[C@@]3(F)[C@@H](O)C[C@]2(C)[C@@]1(O)C(=O)CO [Dexamethasone],ALT serum level,"[5]; Day 2, group B, regular 8AM every day",644.25
same,ALT serum level,"[5]; Day 2, group C, irregular time of administration",747
same,ALT serum level,"[5]; Day 5, group B, regular 8AM every day",978.75
same,ALT serum level,"[5]; Day 5, group C, irregular time of administration",842.5
same,ALT serum level,"[5]; Day 10, group B, regular 8AM every day",1210.25
same,ALT serum level,"[5]; Day 10, group C, irregular time of administration",876.75
same,"IFNg ELISA, second value (Conc)","[3]; P1, lymphocytes only 80.9",33.29
same,"IFNg ELISA, second value (Conc)","[3]; P2, lymphocytes only 474.7",23.29
same,IFNg Conc,[3]; [6],33.29
same,IFNg Conc,[3]; [7],23.29

# Source: patent publication US11728018B2, “Subject-specific system and method for prevention of body adaptation for chronic treatment of disease” (OBERON SCIENCES ILAN LTD., priority 2017, dated 2023)
